What was measured:
MDA-MB-231 cells = assay: MTT antiproliferative assay, MDA-MB-231; format: cell-based, human; details: Homo sapiens, MDA-MB-231, 72 h; for inhibition at 10 µM / inhibition at 30 µM: read-out: Growth inhibition, % ± SEM; for IC50: read-out: calculated IC50 value
In short: (§1)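 MTT viability in cells seeded at 5,000/well (C33-A 10,000/well), treated next day with compound at 10 and 30 µM final for 72 h at 37 °C, 5% CO2. MTT contact 4 h; formazan dissolved in DMSO. Two experiments, five parallels each.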

A2780 cells = assay: MTT antiproliferative assay, A2780; format: cell-based, human; details: Homo sapiens, A2780, 72 h; for inhibition at 10 µM / inhibition at 30 µM: read-out: Growth inhibition, % ± SEM, 72 h; for inhibition at 10 µM: A2780, 10 μM; for inhibition at 30 µM: A2780, 30 μM; for IC50: read-out: calculated IC50 value
In short: as §1

T47D cells = assay: MTT antiproliferative assay, T47D; format: cell-based, human; details: Homo sapiens, 72 h; for inhibition at 10 µM: read-out: Growth inhibition, % ± SEM, 10 μM; for inhibition at 30 µM: read-out: Growth inhibition, % ± SEM, 30 μM; for IC50: read-out: calculated IC50 value
In short: as §1

[1] = tested on: non-cancerous mouse embryo fibroblast (NIH/3T3) cells; assay: MTT assay on non-cancerous fibroblasts (tumour selectivity); format: cell-based; details: for inhibition at 10 µM / inhibition at 30 µM / IC50: Mus musculus, NIH3T3, 72 h; for inhibition at 10 µM / inhibition at 30 µM: read-out: Growth inhibition, % ± SEM; for IC50: read-out: calculated IC50 value
Method: (§2) The antiproliferative properties of the newly synthesized compounds (9–20) and their starting materials (4 and 5) were determined on a panel of human adherent cancer cell lines. MCF-7, MDA-MB-231 and T47D were isolated from breast cancers differing in biochemical background, while A2780 cells were isolated from ovarian cancer. HeLa and SiHa are cervical cancer cell lines positive for HPV-18 and HPV-16, respectively, while C33-A cervical cancer cells are negative for HPV. Moreover, two oropharyngeal cancer cell lines were also utilized: the HPV-negative UPCI-SCC-131 and HPV-16 positive UPCI-SCC-154. The cancer selectivity of compounds was tested on the non-cancerous mouse embryo fibroblast cell line NIH/3T3. All cell lines were purchased from European Collection of Cell Cultures (ECCAC, Salisbury, UK) exception for SiHa and C33-A (American Tissue Culture Collection, Manassas, VA, USA) and HN-SCC-131 and UPCI-SCC-154 (German Collection of Microorganisms and Cell Cultures GmbH, Braunschweig, Germany). Cells were cultivated in minimal essential medium supplemented with 10% fetal bovine serum, 1% non-essential amino acids and an antibiotic–antimycotic mixture. The medium of oropharyngeal cancer cells additionally contained 2.0 mM L-glutamine. All media and supplements were obtained from Lonza Group Ltd., Basel, Switzerland. Near-confluent cancer cells were seeded onto a 96-well microplate at a density of 5,000 cells/well, except for C33-A which were seeded at 10,000/well. After overnight standing, new medium containing the tested compounds at 10 and 30 µM final concentration was added. After incubation for 72 h at 37 °C in humidified air containing 5% CO2, the living cells were assayed by the addition of 20 μL of 5 mg/ml 3-(4,5-dimethylthiazol-2-yl)-2,5-diphenyltetrazolium bromide (MTT) solution. MTT was converted by intact mitochondrial reductase and precipitated as purple crystals during a 4-h contact period. The medium was next removed and the precipitated formazan crystals were dissolved in 100 μL of DMSO during a 60-min period of shaking at 37 ^оC.
All in vitro experiments were carried out twice with five parallels. Stock solutions of the tested substances (10 mM) were prepared in DMSO. […] Cisplatin (Ebewe Pharma GmbH, Unterach, Austria) was used as positive control.

C33-A cells = assay: MTT antiproliferative assay, C33-A; format: cell-based, human; details: Homo sapiens, C-33-A, 72 h; for inhibition at 10 µM: read-out: Growth inhibition, % ± SEM, C33-A, 10 μM; for inhibition at 30 µM: read-out: Growth inhibition, % ± SEM, C33-A, 30 μM; for IC50: read-out: calculated IC50 value
In short: as §1

SiHa cells = assay: MTT antiproliferative assay, SiHa; format: cell-based, human; details: Homo sapiens, 72 h; for inhibition at 10 µM: read-out: Growth inhibition, % ± SEM, 10 μM; for inhibition at 30 µM: read-out: Growth inhibition, % ± SEM, 30 μM; for IC50: read-out: calculated IC50 value
In short: as §1

UPCI-SCC-154 cells = assay: MTT antiproliferative assay, UPCI-SCC-154; format: cell-based, human; details: Homo sapiens, 72 h, 72 h; for inhibition at 10 µM / inhibition at 30 µM: read-out: Growth inhibition, % ± SEM; for inhibition at 10 µM: UPCI-SCC-154, 10 μM; for inhibition at 30 µM: UPCI-SCC-154, 30 μM; for IC50: read-out: calculated IC50 value
In short: as §1

UPCI-SCC-131 cells = assay: MTT antiproliferative assay, UPCI-SCC-131; format: cell-based, human; details: Homo sapiens, 72 h, 72 h; for inhibition at 10 µM / inhibition at 30 µM: read-out: Growth inhibition, % ± SEM; for inhibition at 10 µM: UPCI-SCC-131, 10 μM; for inhibition at 30 µM: UPCI-SCC-131, 30 μM; for IC50: read-out: calculated IC50 value
In short: as §1

HeLa cells = assay: MTT antiproliferative assay, HeLa; format: cell-based, human; details: Homo sapiens, 72 h; for inhibition at 10 µM: read-out: Growth inhibition, % ± SEM, 10 μM; for inhibition at 30 µM: read-out: Growth inhibition, % ± SEM, 30 μM; for IC50: read-out: calculated IC50 value
In short: as §1

MCF-7 cells = assay: MTT antiproliferative assay, MCF-7; format: cell-based, human; details: Homo sapiens, MCF7, 72 h; for inhibition at 10 µM / inhibition at 30 µM: read-out: Growth inhibition, % ± SEM, 72 h; for inhibition at 10 µM: MCF-7, 10 μM; for inhibition at 30 µM: MCF-7, 30 μM; for IC50: read-out: calculated IC50 value
In short: as §1

[2] = tested on: panel of human adherent cancer cell lines; assay: MTT antiproliferative assay, whole panel of cell lines; format: cell-based; details: read-out: IC50 (span over the panel)
Method: as §2, with “^оC. […]” for “^оC.”

| Structure (SMILES) | inhibition at 10 µM (MDA-MB-231 cells) | inhibition at 30 µM (MDA-MB-231 cells) | IC50 (MDA-MB-231 cells) | inhibition at 10 µM (A2780 cells) | inhibition at 30 µM (A2780 cells) | IC50 (A2780 cells) | inhibition at 10 µM (T47D cells) | inhibition at 30 µM (T47D cells) | IC50 (T47D cells) | inhibition at 10 µM [1] | inhibition at 30 µM [1] | IC50 [1] | inhibition at 10 µM (C33-A cells) | inhibition at 30 µM (C33-A cells) | IC50 (C33-A cells) | inhibition at 10 µM (SiHa cells) | inhibition at 30 µM (SiHa cells) | IC50 (SiHa cells) | inhibition at 10 µM (UPCI-SCC-154 cells) | inhibition at 30 µM (UPCI-SCC-154 cells) | other results |
| --- | --- | --- | --- | --- | --- | --- | --- | --- | --- | --- | --- | --- | --- | --- | --- | --- | --- | --- | --- | --- | --- |
| COc1ccc2c(c1)CC[C@@H]1[C@@H]2CC[C@@]2(C)C(=O)[C@H](CP(=O)(c3ccccc3)c3ccccc3)C[C@@H]12 [Compound 9, [(3-methoxy-17-oxo-13α-oestra-1,3,5(10)-trien-16α-yl)methyl]diphenylphosphine oxide] | < 20% | 99.03 ± 0.73% | 23.5 µM | 47.2 ± 2.75% | 98.99 ± 0.41% | 11.7 µM | 57.5 ± 3.15% | 93.77 ± 0.55% | 7.2 µM | < 20% | 96.55 ± 0.86% | 20.4 µM | < 20% | 97.85 ± 0.32% | 13.3 µM | < 20% | 96.5 ± 1.24% | 13.8 µM | < 20% | 99.8 ± 1.48% | Tumour selectivity: IC50 on NIH/3T3 relative to IC50 on UPCI-SCC-131 ([1]; NIH/3T3 vs UPCI-SCC-131): four times higher; IC50 (UPCI-SCC-154 cells): 13.5 µM; inhibition at 10 µM (UPCI-SCC-131 cells): 63.4 ± 1.41%; inhibition at 30 µM (UPCI-SCC-131 cells): 99.35 ± 0.27%; IC50 (UPCI-SCC-131 cells): 5.3 µM; inhibition at 10 µM (HeLa cells): < 20%; inhibition at 30 µM (HeLa cells): 97.59 ± 0.73%; IC50 (HeLa cells): 12.9 µM; inhibition at 10 µM (MCF-7 cells): 21.3 ± 2.79%; inhibition at 30 µM (MCF-7 cells): 93.1 ± 1.6%; IC50 (MCF-7 cells): 13.7 µM |
| C[C@@]12CC[C@@H]3c4ccc(OCc5ccccc5)cc4CC[C@H]3[C@@H]1C[C@H](CP(=O)(c1ccccc1)c1ccccc1)C2=O [Compound 12, [(3-benzyloxy-17-oxo-13α-oestra-1,3,5(10)-trien-16β-yl)methyl]diphenylphosphine oxide] | < 20% | 84 ± 2.61% | 24.5 µM | < 20% | 97.14 ± 0.55% | 28.5 µM | 31.4 ± 1.55% | 75 ± 1.65% | 17 µM | < 20% | 48.3 ± 1.65% | 30.9 µM | < 20% | 97.68 ± 0.85% | 13.6 µM | < 20% | 94.8 ± 1.48% | 14.1 µM | < 20% | 75.5 ± 1.84% | IC50 [2]: 13.6 to 29.8 µM; IC50 (UPCI-SCC-154 cells): 29.8 µM; inhibition at 10 µM (UPCI-SCC-131 cells): 49.4 ± 2.06%; inhibition at 30 µM (UPCI-SCC-131 cells): 90 ± 1.15%; IC50 (UPCI-SCC-131 cells): 14.2 µM; inhibition at 10 µM (HeLa cells): < 20%; inhibition at 30 µM (HeLa cells): 96.4 ± 1.88%; IC50 (HeLa cells): 13.6 µM; inhibition at 10 µM (MCF-7 cells): < 20%; inhibition at 30 µM (MCF-7 cells): 90.2 ± 1.61%; IC50 (MCF-7 cells): 16.4 µM |
| COc1ccc2c(c1)CC[C@@H]1[C@@H]2CC[C@@]2(C)C(=O)[C@H](CP(=O)(c3ccc(C)cc3)c3ccc(C)cc3)C[C@@H]12 [Compound 13, [(3-methoxy-17-oxo-13α-oestra-1,3,5(10)-trien-16α-yl)methyl]di-p-tolylphosphine oxide] | < 20% | 95.56 ± 0.67% | 25.8 µM | < 20% | 97.77 ± 0.35% | 23.8 µM | 26.7 ± 1.95% | 89.82 ± 0.68% | 13.6 µM | < 20% | 89.76 ± 0.49% | 19.3 µM | < 20% | 96.31 ± 0.46% | 14.5 µM | < 20% | 92.9 ± 0.85% | 13.7 µM | < 20% | 75.9 ± 1.93% | IC50 [2]: 10 to 25 µM; IC50 (UPCI-SCC-154 cells): 21.5 µM; inhibition at 10 µM (UPCI-SCC-131 cells): 29.9 ± 1.21%; inhibition at 30 µM (UPCI-SCC-131 cells): 97.02 ± 0.43%; IC50 (UPCI-SCC-131 cells): 12.3 µM; inhibition at 10 µM (HeLa cells): < 20%; inhibition at 30 µM (HeLa cells): 95.69 ± 0.69%; IC50 (HeLa cells): 14.3 µM; inhibition at 10 µM (MCF-7 cells): < 20%; inhibition at 30 µM (MCF-7 cells): 84.9 ± 2.54%; IC50 (MCF-7 cells): 14.8 µM |
| COc1ccc2c(c1)CC[C@@H]1[C@@H]2CC[C@@]2(C)C(=O)[C@@H](CP(=O)(c3ccc(C)cc3)c3ccc(C)cc3)C[C@@H]12 [Compound 14, [(3-methoxy-17-oxo-13α-oestra-1,3,5(10)-trien-16β-yl)methyl]di-p-tolylphosphine oxide] | < 20% | 98.22 ± 0.39% | 17.6 µM | < 20% | 100.3 ± 0.22% | 21.5 µM | 22.6 ± 1.33% | 86 ± 1.51% | 13.8 µM | < 20% | 52.7 ± 2.87% | 29.6 µM | 26.9 ± 2.13% | 101.1 ± 0.24% | 10.9 µM | < 20% | 93 ± 1.37% | 11.8 µM | < 20% | 87 ± 1.16% | IC50 [2]: 10 to 25 µM; IC50 (UPCI-SCC-154 cells): 11.4 µM; inhibition at 10 µM (UPCI-SCC-131 cells): 48.8 ± 1.5%; inhibition at 30 µM (UPCI-SCC-131 cells): 97.3 ± 1.38%; IC50 (UPCI-SCC-131 cells): 10.9 µM; inhibition at 10 µM (HeLa cells): < 20%; inhibition at 30 µM (HeLa cells): 99.14 ± 0.37%; IC50 (HeLa cells): 12.2 µM; inhibition at 10 µM (MCF-7 cells): < 20%; inhibition at 30 µM (MCF-7 cells): 90 ± 2.88%; IC50 (MCF-7 cells): 14.4 µM |

Source: publication PMC8405091, “Microwave-assisted Phospha-Michael addition reactions in the 13α-oestrone series and in vitro antiproliferative properties” (Journal of Enzyme Inhibition and Medicinal Chemistry, 2021)
